Converted amounts (≈) assume the structure as drawn.
Experiments:
[1] = tested on: human prostate cancer cell line (PC-3); experiment: MTT cell viability assay, PC-3; settings: Homo sapiens
Method: (§1) After the incubation time, the plate was centrifuged (Universal centrifuge 320R Hettich, Kirchlengern, Germany) at 440× g, 10 min and 4 °C, then 110 µL of supernatant was removed and 10 µL of MTT solution was added and left to incubate for 3.5 h in the oven at 37 °C and 5% CO2. […] The CC50 was calculated using the GraphPad Prism 9.0 program. Each sample was tested in triplicate in three independent experiments (N3) [32, 33].

[2] = Non-specific microsome protein binding; type: in vitro ADME; settings: for fraction unbound at 60 min, 8.3 µM: rat, pH 7.4, liver microsomes 0.5 mg protein/mL, 37 °C, read-out: Percentage of ƒu(mic) (unbound fraction in nonspecific microsomal binding)
Method: Once such bonds are formed, the bound fraction would become incapable of being metabolized.
Liver microsomes were diluted with PBS pH 7.4 to a concentration of 0.5 mg protein/mL and 3 µL at 1 mM of the working test compound and solutions were mixed with 357 µL of liver microsome suspension. After mixing, duplicate 200 µL aliquots were immediately removed, while another microtubule acted as the control sample (T 0 h), and were quenched with 400 µL of cold acetonitrile containing analytical internal standards. The other samples were incubated at 37 °C at 100 rpm, for 60 min with the same subsequent treatment.

[3] = tested on: MCF-7; experiment: SRB cell viability/antiproliferative assay, MCF-7; settings: Homo sapiens, MCF7, 48 h; for Emax: SRB 48 h, MCF-7, maximum effect at maximum concentration used
[4] = PAMPA—GIT; type: in vitro ADME; settings: for Papp: PAMPA, read-out: Pe. Exp. GIT
Method: To obtain information on the permeability potential of LASSBio-2208 on cell membranes, this derivative was tested using the parallel artificial membrane permeability assay (PAMPA) that is used as an in vitro model of passive diffusion and transcellular permeation. In this model, the permeability across two artificial membranes is measured: brain lipid from pig extract in dodecane (called PAMPA—BBB) and L-α soy phosphatidylcholine in dodecane (called PAMPA—TGI).
To perform the permeability assay we used a donor plate where the compounds (tests or controls) are diluted in a buffered medium, characterized by the presence of a synthetic membrane of polyvinylidene fluoride (PVDF) impregnated with a lipid solution, forming a barrier through which the compounds migrate through a diffusion process to the lower plate called the receptor.
The lipid mixture that impregnates the filter has a different constitution for the permeability tests for the blood–brain barrier (brain lipid from pig extract in dodecane) and gastrointestinal tract (L-α soy phosphatidylcholine in dodecane). In the PAMPA—BBB and PAMPA—GIT assays, the optical density values obtained in the reading at each selected wavelength, for each of the compounds were analysed in comparison with the values of several controls. In the case of the BBB, these values were used to elaborate an equation and determine the permeability coefficient (Pe), using a previously elaborated spreadsheet, and, for the PAMPA—GIT, these values were used to determine the absorbed fraction (Fa%), both using the Excel program. The permeability result for PAMPA—GIT classifies the compounds according to the percentage of absorbed fraction (Fa%), as follows: high intestinal permeability (70–100%), medium permeability (30–69%) or low permeability (0–29%), and the samples were diluted from a stock solution of 10 mM. The PAMPA—BBB model classifies the compounds only as follows: permeable (CNS+) or non-permeable (CNS−) and the assays were made from a stock solution of 1 mg for each compound [25, 40, 41, 42].

[5] = tested on: MOLT-4; experiment: SRB cell viability/antiproliferative assay, MOLT-4; settings: Homo sapiens, MOLT-4, 48 h
[6] = tested on: breast cancer cell line (MCF-7); experiment: MTT cell viability assay, MCF-7; settings: Homo sapiens
Method: as §1

[7] = tested on: PI3Kβ; settings: cited from earlier work
[8] = set-up: method as in PMID 32022441; settings: cited from earlier work
[9] = tested on: PI3Kδ; settings: cited from earlier work
[10] = tested on: mTOR; settings: cited from earlier work
[11] = set-up: method as in PMID 32022441; settings: cited from earlier work; remark: listed apart in the source
[12] = tested on: PC3 prostate carcinoma cell line; set-up: method as in PMID 33919077; settings: PC3, flow cytometry, 24 h assay; cited from earlier work
[13] = tested on: PI3Kα; settings: cited from earlier work
[14] = tested on: PC3 prostate carcinoma cell line; set-up: method as in PMID 33919077; settings: cited from earlier work
[15] = tested on: PI3Kγ; settings: cited from earlier work

Structure (SMILES) | CC50 ([1]; 24 h) [µM] | Emax ([1]; 24 h) [%] | CC50 ([1]; 48 h) [µM] | Emax ([1]; 48 h) [%] | CC50 ([1]; 72 h) [µM] | Emax ([1]; 72 h) [%] | fraction unbound at 60 min, 8.3 µM [2] | CC50 [3] [µM] | Emax [3] [%] | Fraction Absorbed [4] [%] | Papp [4] [×10⁻⁶ cm/s] | CC50 [5] [µM] | CC50 ([6]; MCF7, 24 h) [µM] | Emax ([6]; MCF7, 24 h) [%] | CC50 ([6]; MCF7, 48 h) [µM] | Emax ([6]; MCF7, 48 h) [%] | CC50 ([6]; MCF7, 72 h) [µM] | Emax ([6]; MCF7, 72 h) [%] | also measured
CN(C)c1ccc(C(=O)N/N=C/c2ccc(C(=O)NO)cc2)cc1 [LASSBio-1911] | > 100 | 26.4 | > 100 | 42.6 | 77.1 | 59.2 | 0.004 | 39.1 | > 80 | 20.15 | 0.359 | 53.1 | > 100 | 21.6 | 42.6 | 65.4 | 38.4 | 75.4 | Pe. Exp. GIT [4]: 0.592 10^−6 cm/s; Emax [5]: 61%
O=C(NO)c1ccc(/C=N/NC(=O)c2cc(N3CCOCC3)nc(-c3cccc(O)c3)n2)cc1 [LASSBio-2208] | > 100 | 18.4 | > 100 | 39.3 | > 100 | 42.1 | 0.937 | 5.44 | 67.4 | 13.78 | 0.39 | > 100 | > 100 | 29.5 | 31.7 | 57.3 | 23 | 60.7 | unbound in nonspecific microsomal binding ([2]; liver microsomes): more than 93%; IC50 [7]: 0.0728 µM; aqueous solubility (thermodynamic solubility) [8]: 1.81 µM (≈ 0.837 µg/mL); IC50 [9]: 0.0724 µM; IC50 [10]: 0.464 µM; calculated logP [11]: 1.96; cell cycle effect [12]: cell cycle arrest in the G2/M phase; initial cell apoptosis, share of cell population [12]: 60–66%; IC50 [13]: 0.0463 µM; reduction of cell viability ([14]; PC3, MTT 24 h, highest concentration studied (5 µM)): ~50%; effect on cell viability ([14]; PC3, MTT 48 h, 0.01–5 µM): no effect on cell viability; IC50 [15]: 1.3 µM

Source: PMC10974272, “Cytotoxic and Antiproliferative Activity of LASSBio-2208 and the Attempts to Determine Its Drug Metabolism and Pharmacokinetics In Vitro Profile” (Pharmaceuticals, 2024)
